Source: patent US9295669B2, “Combination therapy for proliferative disorders” (Hoffman La-Roche Inc., priority 2010, dated 2016)
Read-outs that look alike come from different tables or passages of the source.

Assays:
[1] = test system: human LOX-IMVI melanoma cell xenografts; experiment: Tumor growth inhibition in mice with human LOX-IMVI melanoma xenografts; type: in vivo; conditions: monotherapy; for % Inhibition end of study Day: 19 / % T/C end of study Day: 19 / Average % Regression per Group / Mean Tumor Volume End Study DAY: 19 / % Inhibition end of study Day: 18 / % T/C end of study Day: 18 / Mean Tumor Volume End Study DAY: 18 / % Tumor Growth Inhibition: 10 mice; for Complete Regression / Partial Regression: animals out of 10 per group
Protocol: (§1) Mice were implanted with human LOX-IMVI melanoma cell xenografts. The mice, cell line used, and implantation are described below.
(§2) Female athymic Crl:NU-Foxn1nu mice were used for efficacy testing (Charles River, Wilmington, Mass., USA). Mice were 10-12 weeks of age and weighed 23-25 grams. The health of the mice was assessed daily by observation and analysis of blood samples taken from sentinel animals on shared shelf racks. All animals were allowed to acclimate and recover from shipping-related stress for one week. Autoclaved water and irradiated food (5058-ms Pico Lab mouse chow, Purina Mills, Richmond, Ind., USA) were provided ad libitum, and the animals were kept in a 12 hour light and dark cycle. Cages, bedding and water bottles were autoclaved before use and changed weekly. All animal experiments were conducted in accordance with the Guide for the Care and Use of Laboratory Animals, local regulations, and protocols approved by the Roche Animal Care and Use Committee in our AAALAC accredited facility.
(§3) LOX-IMVI cells (aka LOX, National Cancer Institute—Bethesda, Md.) were grown in RPMI-1640 medium supplemented with 10% Fetal Bovine Serum (FBS) and 1% of […] L-glutamine, scaled up, harvested, and prepared so that each mouse received 2×10^6 cells/0.2 ml calcium and magnesium free phosphate-buffered saline (PBS). Cells were implanted in the subcutaneous right flank of each mouse.
(§4) Mice implanted with human xenografts were randomized into eight groups of 10 mice each according to tumor volume so that all groups had similar starting mean tumor volumes. The approximate starting mean tumor volume for this study was 130 mm^3.
(§5) Treatment began on day 5 post-cell implant and ended at day 18 post-cell implant. Four groups of mice developed in example 3 were used. Each group was subjected to a different therapy as follows: • (1) mice receiving Compound I vehicle bid po and peginterferon alfa-2a vehicle 1×/wk sc; • (2) mice receiving Compound I at 75 mg/kg bid bid po; • (3) mice receiving peginterferon alfa-2a at 900 μg 1×/wk sc; and • (4) mice receiving Compound I at 75 mg/kg bid bid po and peginterferon alfa-2a at 900 μg 1×/wk sc.
(§6) The Compound I suspension and its corresponding vehicle were dosed using a sterile 1 cc syringe and 18-gauge gavage needle (0.2 ml/animal) twice daily. The peginterferon alfa-2a solution and its corresponding vehicle were dosed using a sterile 1 cc syringe and 26-gauge needle (0.2 ml/animal) once weekly on days 5 and 12 post-cell implant for a total of two injections.
Tumor measurements were taken once or twice per week. All animals were individually followed throughout the experiment.
Efficacy data was graphically represented as the mean tumor volume±standard error of the mean (SEM). In addition, tumor volumes of treated groups were presented as percentages of tumor volumes of the control groups (% T/C), using the formula: 100×((T−T0)/(C−C0)), where T represented mean tumor volume of a treated group on a specific day during the experiment, T0 represented mean tumor volume of the […] on the first day of treatment; C represented mean tumor volume of a control group on the specific day during the experiment, and Co represented mean tumor volume of the […] on the first day of treatment.
Tumor volume (in cubic millimeters) was calculated using the ellipsoid formula: (D×(d^2))/2, where “D” represents the large diameter of the tumor and “d” represents the small diameter.
Also, tumor regression and/or percent change in tumor volume was calculated using the formula: ((T−T0)/T0)×100, where ‘T’ represents mean tumor volume of the treated group at a particular day, and ‘T0’ represents mean tumor volume of the same treated group at initiation of treatment.
Statistical analysis was determined by the rank sum test and One Way Anova and a post-hoc Bonferroni t-test (SigmaStat, version 2.0, Jandel Scientific, San Francisco, Calif., USA). […]

[2] = type: in vivo; conditions: monotherapy, 10 mice
Protocol: as §2, with “Autoclaved water and irradiated food (5058-ms Pico Lab mouse chow, Purina Mills, Richmond, Ind., USA) were provided ad libitum, and the animals were kept in a 12 hour light and dark cycle.” left out
Treatment began on day 5 post-cell implant and ended at day 18 post-cell implant.
The peginterferon alfa-2a solution and its corresponding vehicle were dosed using a sterile 1 cc syringe and 26-gauge needle (0.2 ml/animal) once weekly on days 5 and 12 post-cell implant for a total of two injections.
Weight loss was graphically represented as percent change in mean group body weight, using the formula: ((W−W0)/W0)×100, where ‘W’ represents mean body weight of the treated group at a particular day, and ‘W0’ represents mean body weight of the same treated group at initiation of treatment.
Treatment began on day 6 post-cell implant and ended at day 19 post-cell implant.
The peginterferon alfa-2a solution and its corresponding vehicle were dosed using a sterile 1 cc syringe and 26-gauge needle (0.2 ml/animal) once weekly on days 6 and 13 post-cell implant for a total of two injections.

[3] = test system: human LOX-IMVI melanoma cell xenografts; experiment: Assessment of survival (increased life span) in mice with human LOX-IMVI melanoma xenografts; type: in vivo; conditions: monotherapy; for 50% Treatment Days (median survival day of treated group): 50% vehicle days 14; for % ILS (increased life span): versus vehicle group
Protocol: as §1, §2, §3, §4, §5, §6
For survival assessment, the percent of increased life space (ILS) was calculated as: 100×[(median survival day of treated group−median survival day of control group)/median survival day of control group]. Median survival was determined utilizing Kaplan Meier survival analysis. Survival in treated groups was statistically compared with the vehicle group and survival comparisons were done between groups using the log-rank test (Graph Pad Prism, La Jolla, Calif., USA). Differences between groups were considered significant when the probability value (p) was ≦0.05.
Treatment began on day 6 post-cell implant and ended at day 19 post-cell implant. Four groups of mice developed in example 3 were used. The treatment groups were as follows: • (1) mice receiving Compound I vehicle bid po and peginterferon alfa-2a vehicle 1×/wk sc; • (2) mice receiving Compound I at 25 mg/kg bid po; • (3) mice receiving peginterferon alfa-2a at 450 μg 1×/wk sc; and • (4) mice receiving Compound I at 25 mg/kg bid and peginterferon alfa-2a at 450 μg 1×/wk.
as §6, with “6” for “5”, “13” for “12”

[4] = Compound I 25 mg/kg bid po, days 6-19 post-cell implant
[5] = Compound I 75 mg/kg bid po, days 5-18 post-cell implant
[6] = peginterferon alfa-2a 450 μg 1×/wk sc (days 6 and 13)
[7] = peginterferon alfa-2a 900 μg 1×/wk sc (days 5 and 12)

## CCCS(=O)(=O)Nc1ccc(F)c(C(=O)c2c[nH]c3ncc(-c4ccc(Cl)cc4)cc23)c1F [Compound I, Propane-1-sulfonic acid{3-[5-(4-chloro-phenyl)-1H-pyrrolo[2,3-b]pyridine-3-carbonyl]-2,4-difluoro-phenyl}-amide]
[1]; [4]
  % Inhibition end of study Day: 19: regression
  % T/C end of study Day: 19: −5%
  Average % Regression per Group: 100%
  Mean Tumor Volume End Study DAY: 19: 0.00 mm^3
  Complete Regression: 10
  Partial Regression: 0
[1]; [5]
  % Inhibition end of study Day: 18: regression
  % T/C end of study Day: 18: −4%
  Average % Regression per Group: 100%
  Mean Tumor Volume End Study DAY: 18: 0.00 mm^3
  Complete Regression: 10
  Partial Regression: 0
[2]; [4]
  # animals ≧ 20% BWL: 0
  % Change in Body Weight at end of Study Day 19: 1.3%
  Max % Weight Gain: 1.3%
  Max % Weight Loss: −1.0%
  Mortality: 0
[2]; [5]
  # animals ≧ 20% BWL: 0
  % Change in Body Weight at end of Study Day 18: −7.0%
  Max % Weight Gain: −3.6%
  Max % Weight Loss: −7.0%
  Mortality: 0
[3]; [4]
  50% Treatment Days (median survival day of treated group): 59 days
  % ILS (increased life span): 321%
[3]; [5]
  50% Treatment Days (median survival day of treated group): 504 days
  % ILS (increased life span): 3500%

## Peginterferon alfa-2a
[1]; [6]
  % Inhibition end of study Day: 19: regression
  % T/C end of study Day: 19: 0%
  % Tumor Growth Inhibition: >100%
  Average % Regression per Group: 6%
  Mean Tumor Volume End Study DAY: 19: 122.93 mm^3
  Complete Regression: 1
  Partial Regression: 6
[1]; [7]
  % Inhibition end of study Day: 18: 98%
  % T/C end of study Day: 18: 2%
  % Tumor Growth Inhibition: 98%
  Mean Tumor Volume End Study DAY: 18: 193.98 mm^3
  Complete Regression: 3
  Partial Regression: 2
[2]; [6]
  # animals ≧ 20% BWL: 0
  % Change in Body Weight at end of Study Day 19: 8.1%
  Max % Weight Gain: 8.1%
  Max % Weight Loss: 3.7%
  Mortality: 0
[2]; [7]
  # animals ≧ 20% BWL: 0
  % Change in Body Weight at end of Study Day 18: 2.7%
  Max % Weight Gain: 2.7%
  Max % Weight Loss: 0.7%
  Mortality: 0
[3]; [6]
  50% Treatment Days (median survival day of treated group): 30 days
  % ILS (increased life span): 114%
[3]; [7]
  50% Treatment Days (median survival day of treated group): 34 days
  % ILS (increased life span): 143%
